According to US11503826B2, “Low volatility auxin herbicide formulations” (priority 2009, dated 2022):
Counter-ions that a name gives are not always drawn.

Experiments:
[1] = Aqueous solubility of dicamba acid and dicamba salts; settings: for Comments (crystal formation) / solubility 0° C. a.e. / solubility 0° C. a.i. / solubility 20° C. a.e. / solubility 20° C. a.i.: Table 10a; for Comments (crystal formation): dicamba salt solutions; for solubility 0° C. a.e. / solubility 0° C. a.i. / solubility 20° C. a.e. / solubility 20° C. a.i.: dicamba salt; for solubility 0° C. a.e. / solubility 0° C. a.i.: equilibrated 5 to 7 days at 0° C.; for solubility 0° C. a.e. / solubility 20° C. a.e.: acid equivalent; for solubility 0° C. a.i. / solubility 20° C. a.i.: active ingredient; for solubility 20° C. a.e. / solubility 20° C. a.i.: equilibrated 5 to 7 days at 20° C.; for solubility 20° C. a.e.: 0.45 micron filter, HPLC; for aqueous solubility wt % a.i. @20° C.: dicamba salts
Excerpt: The solution was then passed through a 0.45 micron filter and assayed by HPLC for soluble dicamba.

[2] = Distillation volatility: dicamba in distillate by HPLC/MS; type: physicochemical; settings: for ppm Dicamba in distillate: Table 4h summary, 5% a.e. salt solution
Procedure: The pH was measured on a standard Orion Model 320 pH meter of each neat solution.
Simple distillation using a short path still was used to collect the water distillate containing the dicamba in the vapor phase of the salt solutions. A 50 mL distillation flask was used. The distillation receiver was a “cow” type with four 2 mL graduated sections. The solutions were heated at the 30% setting of the GlassCol heating unit and the boiling point of each distillation was noted. The first 2 ml of distillate was collected, and the receiver rotated to avoid collection of any further distillate in that section as the distillation flask cooled. The 2 mL sample was quantitatively transferred by pipette to HPLC vials for later analysis. Between each distillation the distillation apparatus was washed with 10 volumes of tap water, 10 volumes of distilled water, rinsed with acetone, and dried in a 60° C. oven. Each distillation was run in triplicate.
The distillate was collected and analyzed for dicamba concentration using HPLC/Mass Spectroscopy (MS). The HPLC column was an Agilent Zorbax Eclipse XDB-C8, 4.6×150 mm, 5u, PN 993967-90. Mobile phase A was 0.1% formic acid in D.I. water. Mobile phase B was 0.1% formic acid in acetonitrile. A flow rate of 1.2 mL/min was used and an injection volume of 5, 10, 15 or 25 ul was used depending on the dicamba level in the sample. The following gradient was used: […]
The MS parameters were as follows: Type SIR; ES-ion mode; 0.05 second inter channel delay; 0.05 second interscan time; 0.5 span (Da); 10 minutes elapsed time; and 6-6000 ppb calibration range. […] Channel 2 mass was 177 (Da); Dwell was 0.25(s); Cone(V)=tune and; 0.05(s) delay.

[3] = Tank mix compatibility of dicamba salts with potassium glyphosate; type: physicochemical
Excerpt: The weight of the dicamba solution that caused precipitation was noted. The results are reported in Table 12a below where “salt” refers to the dicamba salt and “g to crystals” refers to the total amount of grams of dicamba a.e. that were required to induce crystallization or precipitation of crystals.

[4] = type: physicochemical; settings: 5 mL sample, air pulled through tube over PUF approximately 1 day; wt % a.e.: salts 35.8, BANVEL 40, acid 99
Procedure: In a further set of experiments, measurements of dicamba concentration in the gas phase (air) above 38.5 wt % a.e. solutions of various dicamba salts was measured. 5 mL of each sample of dicamba was placed into a 50 mL plastic centrifuge tube with four holes approximately ⅛ in diameter drilled into the tube at the 10 mL line. A 22 mm×30 mm PUF (SKC ct. #226-124) was placed into a glass tube of app. 20 mm diameter with parafilm wrapped around the outside to obtain a snug fit into the top of the centrifuge tube. A hose was connected to the other end of the glass tube leading to a vacuum line. The air flow was regulated to app. 2 L/min using a flow controller (about 0.4 L air/min-mL sample). Air was pulled through the tube at […] for approximately 1 day. Note that the air conditions of flow rate, temperature, pressure and composition (e.g., relative humidity) are not narrowly critical as long as the various samples are analyzed under similar conditions. For instance, air at from about 5° C. to about 40° C., from about 0.5 to about 1.5 bar pressure, from about 0% to about 95% relative humidity, and at a flow rate of from about 0.1 to 10 L/min-mL sample could be suitably used for volatility analysis. The PUF was removed from the glass tube, extracted with 20 mL methanol and the resulting solution analyzed for dicamba concentration by LC-MS. The results are shown in Table 4i below where “wt % a.e.” refers to the dicamba concentration, “μg/mL” refers to the dicamba concentration in the distillate, “μg dicamba” refers to the total dicamba extracted from the PUF by 20 mL methanol, and “ng/L air” and “moles/L air” refer to the dicamba concentration in the gas phase above the solution.

Compound: NCCCCCCN [HMDA]
- Comments (crystal formation) [1]: Pasty solid
- solubility 0° C. a.e. [1]: 11.2 wt %
- solubility 0° C. a.i. [1]: 14.1 wt %
- solubility 20° C. a.e. [1]: 14.1 wt %
- solubility 20° C. a.i. [1]: 17.8 wt %

Compound: NCCOCCO [DGA]
- Comments (crystal formation) [1]: Crystals formed slowly
- solubility 20° C. a.e. [1]: <50 wt %
- Mean Dicamba in Distillate ([2]; 1% a.e. dicamba, solution pH 4.23): 0.46 ppm
- Mean Dicamba in Distillate ([2]; 1% a.e. dicamba, solution pH 6.48): 0.18 ppm
- Mean Dicamba in Distillate ([2]; 1% a.e. dicamba, solution pH 8.24): 0.13 ppm
- Mean Dicamba in Distillate ([2]; 1% a.e. dicamba, solution pH 8.88): 0.12 ppm
- Mean Dicamba in Distillate ([2]; 2% a.e. dicamba, solution pH 4.17): 1.10 ppm
- Mean Dicamba in Distillate ([2]; 2% a.e. dicamba, solution pH 6.44): 0.31 ppm
- Mean Dicamba in Distillate ([2]; 2% a.e. dicamba, solution pH 8.22): 0.28 ppm
- Mean Dicamba in Distillate ([2]; 2% a.e. dicamba, solution pH 8.92): 0.19 ppm
- Mean Dicamba in Distillate ([2]; 5% a.e. dicamba, solution pH 4.57): 2.11 ppm
- Mean Dicamba in Distillate ([2]; 5% a.e. dicamba, solution pH 6.35): 0.75 ppm
- Mean Dicamba in Distillate ([2]; 5% a.e. dicamba, solution pH 8.26): 0.58 ppm
- Mean Dicamba in Distillate ([2]; 5% a.e. dicamba, solution pH 9.03): 0.32 ppm
- ppm Dicamba in distillate ([2]; pH 6.35): 0.8 ppm
- ppm Dicamba in distillate ([2]; pH 8.26): 0.6 ppm
- Comment ([3]; dicamba salt solution added to […] Roundup POWERMAX solution): CLARITY-clear solution with no
- g to crystals ([3]; grams dicamba a.e. (35.8% a.e. salt solution) added to […] Roundup POWERMAX solution to induce crystallization or precipitation): >17 g

Compound: CC(C)N [IPA]
- Mean Dicamba in Distillate ([2]; 1% a.e. dicamba, solution pH 3.41): 1.42 ppm
- Mean Dicamba in Distillate ([2]; 1% a.e. dicamba, solution pH 4.40): 0.42 ppm
- Mean Dicamba in Distillate ([2]; 1% a.e. dicamba, solution pH 5.13): 0.37 ppm
- Mean Dicamba in Distillate ([2]; 1% a.e. dicamba, solution pH 8.10): 0.72 ppm
- Mean Dicamba in Distillate ([2]; 1% a.e. dicamba, solution pH 9.13): 1.22 ppm
- Mean Dicamba in Distillate ([2]; 2% a.e. dicamba, solution pH 3.37): 3.65 ppm
- Mean Dicamba in Distillate ([2]; 2% a.e. dicamba, solution pH 4.36): 1.42 ppm
- Mean Dicamba in Distillate ([2]; 2% a.e. dicamba, solution pH 5.10): 0.94 ppm
- Mean Dicamba in Distillate ([2]; 2% a.e. dicamba, solution pH 8.13): 0.75 ppm
- Mean Dicamba in Distillate ([2]; 2% a.e. dicamba, solution pH 9.20): 3.43 ppm
- Mean Dicamba in Distillate ([2]; 5% a.e. dicamba, solution pH 3.44): 5.85 ppm
- Mean Dicamba in Distillate ([2]; 5% a.e. dicamba, solution pH 4.33): 3.14 ppm
- Mean Dicamba in Distillate ([2]; 5% a.e. dicamba, solution pH 4.94): 3.77 ppm
- Mean Dicamba in Distillate ([2]; 5% a.e. dicamba, solution pH 8.24): 2.47 ppm
- Mean Dicamba in Distillate ([2]; 5% a.e. dicamba, solution pH 9.28): 12.57 ppm
- ppm Dicamba in distillate ([2]; pH 8.24): 2.5 ppm

Compound: COc1c(Cl)ccc(Cl)c1C(=O)O [Dicamba acid, 3,6-dichloro-2-methoxybenzoic acid]
- aqueous solubility Approximate g a.e./L @20° C. ([1]; listed as acid): 4.5 g a.e./L
- aqueous solubility wt % a.e. @20° C. ([1]; listed as acid): 0.4 wt % a.e.
- aqueous solubility wt % a.e. @20° C. ([1]; Table 10b, second experiment, dicamba acid and salts, listed as acid): 0.4 wt % a.e.
- dicamba [4]: 15.3 µg/mL
- dicamba concentration in gas phase, moles/L air [4]: 1.92 × 10^−10 moles/L air
- dicamba concentration in gas phase, ng/L air [4]: 42.4 ng/L air
- μg dicamba [4]: 305.4 µg

Compound: COc1c(Cl)ccc(Cl)c1C(=O)O.NCCOCCO [Dicamba DGA salt, reference compound]
- aqueous solubility Approximate g a.e./L @20° C. [1]: 700 g a.e./L
- aqueous solubility wt % a.e. @20° C. [1]: 56.5 wt % a.e.
- aqueous solubility wt % a.e. @20° C. ([1]; Table 10b, second experiment, dicamba acid and salts): 56.5 wt % a.e.
- aqueous solubility wt % a.i. @20° C. ([1]; Table 10b, second experiment): 83.4 wt % a.i.
- crystal formation from concentrated salt solution ([1]; solubility experiment, Example 10): several weeks

Compound: CNC [DMA]
- Mean Dicamba in Distillate ([2]; 1% a.e. dicamba, solution pH 3.25): 4.50 ppm
- Mean Dicamba in Distillate ([2]; 1% a.e. dicamba, solution pH 4.36): 0.57 ppm
- Mean Dicamba in Distillate ([2]; 1% a.e. dicamba, solution pH 6.11): 0.30 ppm
- Mean Dicamba in Distillate ([2]; 1% a.e. dicamba, solution pH 8.53): 0.73 ppm
- Mean Dicamba in Distillate ([2]; 1% a.e. dicamba, solution pH 10.12): 1.32 ppm
- Mean Dicamba in Distillate ([2]; 2% a.e. dicamba, solution pH 3.20): 9.19 ppm
- Mean Dicamba in Distillate ([2]; 2% a.e. dicamba, solution pH 4.25): 1.08 ppm
- Mean Dicamba in Distillate ([2]; 2% a.e. dicamba, solution pH 5.97): 0.83 ppm
- Mean Dicamba in Distillate ([2]; 2% a.e. dicamba, solution pH 8.66): 1.98 ppm
- Mean Dicamba in Distillate ([2]; 2% a.e. dicamba, solution pH 10.24): 4.88 ppm
- Mean Dicamba in Distillate ([2]; 5% a.e. dicamba, solution pH 3.18): 20.10 ppm
- Mean Dicamba in Distillate ([2]; 5% a.e. dicamba, solution pH 4.22): 2.67 ppm
- Mean Dicamba in Distillate ([2]; 5% a.e. dicamba, solution pH 5.58): 2.06 ppm
- Mean Dicamba in Distillate ([2]; 5% a.e. dicamba, solution pH 8.69): 8.43 ppm
- Mean Dicamba in Distillate ([2]; 5% a.e. dicamba, solution pH 10.17): 12.34 ppm
- ppm Dicamba in distillate ([2]; pH 5.58): 2.1 ppm
- ppm Dicamba in distillate ([2]; pH 8.69): 8.4 ppm

Compound: COc1c(Cl)ccc(Cl)c1C(=O)O [Dicamba potassium salt]
- aqueous solubility Approximate g a.e./L @20° C. ([1]; listed as potassium dicamba): 720 g a.e./L
- aqueous solubility wt % a.e. @20° C. ([1]; listed as potassium dicamba): 54.6 wt % a.e.
- Comments (crystal formation) ([1]; listed as K): Crystals form on
- solubility 0° C. a.e. ([1]; listed as K): 52.7 wt %
- solubility 0° C. a.i. ([1]; listed as K): 61.8 wt %
- solubility 20° C. a.e. ([1]; listed as K): 54.6 wt %
- solubility 20° C. a.i. ([1]; listed as K): 64 wt %
- aqueous solubility wt % a.e. @20° C. ([1]; Table 10b, second experiment, dicamba acid and salts, listed as potassium salt): 54.6 wt % a.e.
- aqueous solubility wt % a.i. @20° C. ([1]; Table 10b, second experiment, listed as potassium salt): 64 wt % a.i.
- ppm Dicamba in distillate ([2]; pH 7.06): 0.6 ppm
